The term pIC50 denotes the IC50 on a negative log10 scale, so that one unit is a factor of ten.

The values below come from US12570675B2, “Boronic acid compounds” (LG CHEM, LTD., priority 2020, dated 2026).

This assay addresses Proteasome chymotrypsin-like activity (S26 protein from RPMI8226 cells) (Homo sapiens, UniProt P28074). It counts as biochemical. The conditions noted are these: S26 protein from RPMI8226 cell extract 2 ug/well, substrate 20 uM, 37° C., 90 minutes; read-out: Proteasome chymotrypsin-like activity inhibition IC50. A digest of the protocol:
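RPMI8226 myeloma cell lysate (S26 fraction, 20 mM Tris-HCl pH 8.0; 2 ug/well) incubated with compound serially diluted from 10 uM (0.5% DMSO) and 20 uM Suc-LLVY-AMC (chymotrypsin-like) or Z-LLE-AMC (caspase-like) for 90 min at 37 °C. Fluorescence read; IC50 from % of uninhibited signal.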

Each structure is given as a SMILES string. pIC50: −log10 of the molar value.

Proteasome chymotrypsin-like activity (S26 protein from RPMI8226 cells), sequence (P28074 60-263 limits assumed): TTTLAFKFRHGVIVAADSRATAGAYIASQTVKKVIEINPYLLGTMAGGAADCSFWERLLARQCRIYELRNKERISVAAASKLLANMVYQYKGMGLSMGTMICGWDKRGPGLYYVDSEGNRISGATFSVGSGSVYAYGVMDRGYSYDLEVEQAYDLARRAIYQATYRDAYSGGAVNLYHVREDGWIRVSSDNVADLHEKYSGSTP

`CC(C)C[C@H](NC(=O)C1(Cc2ccccc2)CC(CNC(=O)c2c(Cl)cnn2C)=NO1)B(O)O` (stereo partly drawn) [Example 184, ((1R)-1-(5-benzyl-3-((4-chloro-1-methyl-1H-pyrazol-5-carboxamido)methyl)-4,5-dihydroisoxazol-5-carboxamido)-3-methylbutyl)boronic acid]: the pIC50 was > 8.00.
Consider `CC(C)C[C@H](NC(=O)C1(Cc2ccccc2Cl)CC(CNC(=O)c2nccc3ccccc23)=NO1)B(O)O` (stereo partly drawn) [Example 102, ((1R)-1-(5-(2-chlorobenzyl)-3-((isoquinolin-1-carboxamido)methyl)-4,5-dihydroisoxazol-5-carboxamido)-3-methylbutyl)boronic acid], for which the pIC50 is > 8.00.
For the compound `CC(C)C[C@H](NC(=O)C1(Cc2ccccc2)CC(COc2ccccc2)=NO1)B(O)O` (stereo partly drawn) [Example 254], the pIC50 is > 8.00.
Regarding `CC[C@H](NC(=O)C1(Cc2ccccc2)CC(CNC(=O)c2cccc3ccccc23)=NO1)B(O)O` (stereo partly drawn) [Example 303, ((1R)-1-(3-((1-naphthamido)methyl)-5-benzyl-4,5-dihydroisoxazol-5-carboxamido)propyl)boronic acid], the pIC50 is > 8.00.
With `Cc1cc(COCC2=NOC(Cc3ccccc3)(C(=O)N[C@@H](CC(C)C)B(O)O)C2)ccn1` (stereo partly drawn) [Example 276] the figure was > 8.00; with `CCC1(C(=O)N[C@@H](CC(C)C)B(O)O)CC(c2ccccc2)=NO1` (stereo partly drawn) [Example 4, ((1R)-1-(5-ethyl-3-phenyl-4,5-dihydroisoxazol-5-carboxamido)-3-methylbutyl)boronic acid], < 6.00; with `Cc1nc(C(=O)NCC2=NOC(Cc3ccccc3)(C(=O)N[C@@H](CC(C)C)B(O)O)C2)co1` (stereo partly drawn) [Example 173, ((1R)-1-(5-benzyl-3-((2-methyloxazol-4-carboxamido)methyl)-4,5-dihydroisoxazol-5-carboxamido)-3-methylbutyl)boronic acid], > 7.60.
Take `CC(C)C[C@H](NC(=O)C1(Cc2ccccc2)CC(COCc2ccccn2)=NO1)B(O)O` (stereo partly drawn) [Example 268]: the pIC50 was > 8.00.
Next, `CC(C)C[C@H](NC(=O)C1CC(c2cncc(-c3ccccc3)c2)=NO1)B(O)O` (stereo partly drawn) [Example 33, ((1R)-3-methyl-1-(3-(5-phenylpyridin-3-yl)-4,5-dihydroisoxazol-5-carboxamido)butyl)boronic acid]: > 7.00; `COc1cccc(CC2(C(=O)N[C@@H](CC(C)C)B(O)O)CC(CNC(=O)c3cc(-c4ccccn4)nn3C(C)C)=NO2)c1` (stereo partly drawn) [Example 241, ((1R)-1-(3-((1-isopropyl-3-(pyridin-2-yl)-1H-pyrazol-5-carboxamido)methyl)-5-(3-methoxybenzyl)-4,5-dihydroisoxazol-5-carboxamido)-3-methylbutyl)boronic acid]: > 8.00; `Cc1ncc(C(=O)NCC2=NOC(Cc3ccccc3)(C(=O)N[C@@H](CC(C)C)B(O)O)C2)s1` (stereo partly drawn) [Example 235, ((1R)-1-(5-benzyl-3-((2-methylthiazol-5-carboxamido)methyl)-4,5-dihydroisoxazol-5-carboxamido)-3-methylbutyl)boronic acid]: > 8.00.
For `O=C(N[C@@H](Cc1ccccc1)B(O)O)C1(Cc2ccccc2)CC(COCc2cccn3ccnc23)=NO1` (stereo partly drawn) [Example 267, ((1R)-1-(5-benzyl-3-((imidazo[1,2-a]pyridin-8-ylmethoxy)methyl)-4,5-dihydroisoxazol-5-carboxamido)-2-phenylethyl)boronic acid], the pIC50 is > 8.00.
For `COc1cccc(COCC2=NOC(Cc3ccccc3)(C(=O)N[C@@H](Cc3ccccc3)B(O)O)C2)c1` (stereo partly drawn) [Example 273, ((1R)-1-(5-benzyl-3-(((3-methoxybenzyl)oxy)methyl)-4,5-dihydroisoxazol-5-carboxamido)-2-phenylethyl)boronic acid], the pIC50 was > 8.00.
With `CC(C)C[C@H](NC(=O)C1(Cc2ccccc2)CC(CNC(=O)c2nccnc2N)=NO1)B(O)O` (stereo partly drawn) [Example 161, ((1R)-1-(3-((3-aminopyrazin-2-carboxamido)methyl)-5-benzyl-4,5-dihydroisoxazol-5-carboxamido)-3-methylbutyl)boronic acid] the figure was > 8.00.
With `CC(C)C[C@H](NC(=O)C1(Cc2ccccc2)CC(CNC(=O)c2cccc(N(C)C)c2)=NO1)B(O)O` (stereo partly drawn) [Example 321] the figure was > 8.00; with `Cc1cccc(CC2(C(=O)N[C@@H](CC(C)C)B(O)O)CC(CNC(=O)c3sc(C)nc3C)=NO2)c1` (stereo partly drawn) [Example 217, ((1R)-1-(3-((2,4-dimethylthiazol-5-carboxamido)methyl)-5-(3-methylbenzyl)-4,5-dihydroisoxazol-5-carboxamido)-3-methylbutyl)boronic acid], > 8.00; with `CC(C)C[C@H](NC(=O)C1CC(c2ccc(-c3ccccc3)cc2)=NO1)B(O)O` (stereo partly drawn) [Example 27, ((1R)-1-(3-([1,1′-biphenyl]-4-yl)-4,5-dihydroisoxazol-5-carboxamido)-3-methylbutyl)boronic acid], > 6.60.
With `CC[C@H](NC(=O)C1(Cc2ccccc2)CC(CNC(=O)c2cccc(Cl)n2)=NO1)B(O)O` (stereo partly drawn) [Example 318, ((1R)-1-(5-benzyl-3-((6-chloropicolinamido)methyl)-4,5-dihydroisoxazol-5-carboxamido)propyl)boronic acid] the figure was > 7.60; with `COCC1(C(=O)N[C@@H](CC(C)C)B(O)O)CC(CNC(=O)c2nccc3ccccc23)=NO1` (stereo partly drawn) [Example 192, ((1R)-1-(3-((isoquinolin-1-carboxamido)methyl)-5-(methoxymethyl)-4,5-dihydroisoxazol-5-carboxamido)-3-methylbutyl)boronic acid], > 8.00.
With `CC(C)C[C@H](NC(=O)C1(Cc2ccccc2)CC(CNC(=O)c2cc(F)cnc2Cl)=NO1)B(O)O` (stereo partly drawn) [Example 164, ((1R)-1-(5-benzyl-3-((2-chloro-5-fluoronicotinamido)methyl)-4,5-dihydroisoxazol-5-carboxamido)-3-methylbutyl)boronic acid], the pIC50 was > 8.00.
Next, `Cc1cc(C(=O)NCC2=NOC(Cc3ccccc3)(C(=O)N[C@@H](CC(C)C)B(O)O)C2)n(C2CCOCC2)n1` (stereo partly drawn) [Example 218, ((1R)-1-(5-benzyl-3-((3-methyl-1-(tetrahydro-2H-pyran-4-yl)-1H-pyrazol-5-carboxamido)methyl)-4,5-dihydroisoxazol-5-carboxamido)-3-methylbutyl)boronic acid]: > 8.00; `Cc1cc(C(=O)NCC2=NOC(C(=O)N[C@@H](CC(C)C)B(O)O)C2)no1` (stereo partly drawn) [Example 81, ((1R)-3-methyl-1-(3-((5-methylisoxazol-3-carboxamido)methyl)-4,5-dihydroisoxazol-5-carboxamido)butyl)boronic acid]: > 6.60; `CC(C)C[C@H](NC(=O)C1(Cc2ccccc2)CC(CNCc2nccc3ccccc23)=NO1)B(O)O` (stereo partly drawn) [Example 147, ((1R)-1-(5-benzyl-3-(((isoquinolin-1-ylmethyl)amino)methyl)-4,5-dihydroisoxazol-5-carboxamido)-3-methylbutyl)boronic acid]: > 7.60.
With `CC(C)C[C@H](NC(=O)C1(Cc2ccccc2)CC(CNC(=O)c2ccccc2Cl)=NO1)B(O)O` (stereo partly drawn) [Example 286] the figure was > 8.00.
